Entries after “also recorded” stand apart in the source; their conditions may differ.
How the values were obtained:
[1] = in humans; cited from earlier work
[2] = in vivo; cited from earlier work
[3] = test system: arterioles of adductor muscle; assay: Vascular remodelling, histopathological analysis of isolated adductor muscle; assay type: in vivo; conditions: SD rats, compared to Cilostazol and placebo (FIG. 7)
Method: In order to assess possible effects the different treatments have on vascular remodelling, histopathological analysis of isolated adductor muscle was performed and the vascular luminal- and vascular wall-properties were addressed. […] See FIG. 7 showing in the left panel the arteriolar wall area/luminar ratio in the four treatment arms.

[4] = test system: arterioles of adductor muscle; assay: Arterioles density by alpha-SMA immunohistology, diabetic mice; assay type: in vivo, diabetic mouse (Bks.Cg+Lepr<db>/+Lepr<db>/OlaHsd); conditions: alpha-SMA immunohistology (FIG. 12)
Method: Immunohistology for the alpha-smooth muscle (α-SMA) antigen was employed to highlight the vascular structures within the muscles and allow accurate counting of arterioles. Briefly, sections were deparaffinised in xylene (2×5 min) and rehydrated in decreasing concentrations of ethanol (2×3 min washes in 100% ethanol, followed by 1×3 min wash in 96% ethanol). Sections were washed twice with Tris-buffered saline (TBS, 0.1 M Tris- HCl with 0.9% NaCl, pH 7.4) and incubated for 1 h at room temperature (RT) with the primary antisera (M0851, Dako, Baar, Switzerland), without pretreatment. A detection kit containing the secondary antibody and diaminobenzidine tetrahydrochloride (DAB) as chromogen was subsequently applied according to the manufacturer's protocols
(Peroxidase/DAB plus Mouse Kit; DAKO). Sections were then washed 3 times in TBS and once in distilled water and counterstained for 1 min with haematoxylin, followed by rinsing for 5 min in tap water and dehydration in ascending alcohols, clearing in xylene, coverslipping and mounting. Arterioles density was quantified in histological sections of the adductor muscle. Results were expressed as number of arterioles/mm^2 of tissue.

[5] = test system: adductor muscle of hypoxic limb; assay: Histological analysis of muscles (new vessels, capillary and arteriole density), rat hind limb ischemia; assay type: in vivo, Sprague-Dawley (SD) rats; conditions: SD rats; for number of arterioles in isolated muscles (arterioles density/mm^2): at 4 weeks, compared to Cilostazol- and placebo-treated animals (FIG. 5)
Method: (§1) The animals were held in the Open Animal Facility at the Department of Physiology, University of Zurich and used after a suitable period allowing the animals to adapt to the new environment. A unilateral hind limb ischemia was created in the SD rats by surgical intervention, whereby the right hind limb was ligated and the vessels excised as described in Vasc. Pharmacol., 2009, 51(4):268-74. The animals were then randomly assigned to receive either Cilostazol alone (100 mg/kg/bi-daily orally by gavage), CLC-1011 (3.6 mg/day by mini-osmotic pump, e.g. Model #2004, Alzet Inc.) alone, a combination of Cilostazol (100 mg/kg/bi-daily) and CLC-1011 (3.6 mg/day by mini-osmotic pump), or placebo for a total duration of 2 or 4 weeks.
(§2) During the treatment intervals, animals were scanned using laser Doppler imaging every third day post-operation to estimate the blood perfusion in ligated limbs. Blood flow was measured using a laser Doppler imager (Moor, Axminster, UK) and analyzed with the MoorLDI™ Image Review V51 software. The animals were placed on a heating pad in order to maintain constant body temperature during the entire procedure. At the end of the 2 and 4 weeks interval, animals were sacrificed and muscles were isolated and prepared for histological analysis.

[6] = test system: ligated hind limb (unilateral hind limb ischemia); assay: Blood perfusion by laser Doppler imaging in rat unilateral hind limb ischemia model of PAD; assay type: in vivo, Sprague-Dawley (SD) rats; conditions: SD rats; for blood perfusion in ligated limbs (laser Doppler imaging): hind limb ischemia, CLC-1011 3.6 mg/day by osmotic pump, Cilostazol 100 mg/kg bi-daily orally, over 21 days (FIG. 1)
Method: as §1, §2

[7] = test system: stromal cell-derived factor 1 (SDF-1); assay: Circulating SDF-1 levels in serum by ELISA; assay type: in vivo; conditions: rats; serum at day 6 post-ischemia; ELISA (FIG. 9)
Method: The stromal cell-derived factor 1 (SDF-1) is a circulating proangiogenic cytokine, which plays an important role in angiogenesis. Serum of rats from 4 treatment arms was collected at day 6 post-ischemia. SDF-1 levels were determined by ELISA using methods known in the art.

[8] = test system: endothelial progenitor cells; assay: Mobilization of putative stem cells into peripheral blood by flow cytometry, diabetic mice; assay type: in vivo, diabetic mouse (Bks.Cg+Lepr<db>/+Lepr<db>/OlaHsd)
Method: Mobilization of putative stern cells from bone marrow into the peripheral blood in the placebo and treated groups mice 7 days after surgery was assessed by flow cytometry in whole blood. The cells were identified using a combination of antibodies that binds to the specific cell surface markers typical for potential angiogenic stem cells.

arterioles = assay: Arteriolar remodeling response to ischemia (wall and luminal area), diabetic mice; assay type: in vivo, diabetic mouse (Bks.Cg+Lepr<db>/+Lepr<db>/OlaHsd); conditions: arterioles (FIG. 13)
Method: These findings corroborate with the remodeling effect of CLC-1011 seen at the vascular wall. To check the arteriolar remodeling response to the ischemia, immunohistochemistry was performed as described above. The remodeling consists in the wall area per luminal area ratio. The measurement of wall and luminal areas and diameter calculation of arterioles was performed in an equal random area for each histological sample. The results shown in FIG. 13a; FIG. 13b and FIG. 13c indicate that the luminal area of the vessels increased in the CLC-1011-treated animals, but not in the Cilostazol- or the placebo-treated animals. Of note, the results indicated no change in the wall area size in either of the groups.

platelets = assay: Platelet activation by mean fluorescence intensity in platelets isolated from treatment groups; assay type: in vivo; conditions: platelets from treated rats; resting state (FIG. 8)
Method: Platelet activation was determined using mean fluorescence measurements.

adductor muscles = assay: Immunohistochemical analysis of adductor muscles (capillary density), diabetic mice; assay type: in vivo, diabetic mouse (Bks.Cg+Lepr<db>/+Lepr<db>/OlaHsd); conditions: normalized by number of myocytes (FIG. 11a, 11b)
ischemic hind limb = assay: Blood flow by laser Doppler imaging in diabetic mice with hind limb ischemia; assay type: in vivo, diabetic mouse (Bks.Cg+Lepr<db>/+Lepr<db>/OlaHsd); conditions: for blood perfusion (laser Doppler imaging): diabetic mice with hind limb ischemia (FIG. 10a)
Method: Blood flow was measured by laser Doppler imaging in diabetic mice with hind limb ischemic after treatment with CLC-1011 alone or in a combination with Cilostazol.

[9] = whole blood flow cytometry, 7 days after surgery (FIG. 14)

| Compound | nitrate tolerance [1] | half-live [2] | luminal area of the vessels [3] | arterioles density in the hind limb [4] | angiogenesis / capillary density in the adductor muscle ([5]; after 2 and 4 weeks of treatment, 28 days after surgery (FIG. 4)) | number of arterioles in isolated muscles (arterioles density/mm^2) [5] | number of arterioles in isolated muscles (arterioles density/mm^2) ([5]; listed as CL-1011) | formation of new blood vessels in hypoxic limb tissue ([5]; tissue sections (FIG. 3)) | blood perfusion in ligated limbs (laser Doppler imaging) [6] | time up to which the increase in blood perfusion can be detected ([6]; ligated hind limb normalized to contralateral limb (FIG. 6)) | circulating SDF-1 levels in serum [7] | recruitment of the endothelial progenitor cells ([8]; peripheral blood 7 days after surgery) | number of potential endothelial progenitor cells positive for VEGFR2 [8, 9] | number of potential endothelial progenitor cells positive for stem cell antigen 1 (Sca-1) [8, 9] | luminal area of the vessels (arterioles) | platelet activation (mean fluorescence intensity) (platelets) | capillary density in adductor muscles (adductor muscles) | blood perfusion (laser Doppler imaging) (ischemic hind limb) | area under the curve of blood flow (ischemic hind limb; diabetic mice with hind limb ischemia (FIG. 10b)) |
| --- | --- | --- | --- | --- | --- | --- | --- | --- | --- | --- | --- | --- | --- | --- | --- | --- | --- | --- | --- |
| NCCO[N+](=O)[O-] [AEN, 2-aminoethyl nitrate] | does not provoke nitrate tolerance | approx. 2 hours | – | – | – | – | – | – | – | – | – | – | – | – | – | – | – | – | – |
| NCCO[N+](=O)[O-] [CLC-1011, 2-aminoethyl nitrate] | – | – | significantly increases luminal area | increase of the arterioles | significant arteriogenic effects; also recorded: angiogenesis has been stimulated | significant arteriogenic effects | significantly contributes to an increase of the number of arterioles | clear increase in the formation of new blood vessels | increase in blood perfusion | up to 3 weeks | induced the release of the circulating SDF-1 | enhances the recruitment of the endothelial progenitor cells | increase in the number of potential endothelial progenitor cells | increase in the number of potential endothelial progenitor cells | increased | significantly prevents activation of platelets in resting state | increase of the capillary density | increase in the blood perfusion; also recorded: increased blood perfusion | increase of the area under the curve |
| O=C1CCc2cc(OCCCCc3nnnn3C3CCCCC3)ccc2N1 [Cilostazol, reference compound] | – | – | such effect is absent | no change | – | – | – | – | no effect in blood flow | – | – | – | – | – | not | no effect in prevention of platelet activation and aggregation | – | remains unchanged | – |
